The results in this text go back to patent publication US20140018347A1, “BENZOXAZEPINES AS INHIBITORS OF mTOR AND METHODS OF THEIR USE AND MANUFACTURE” (Exelixis, Inc., priority 2010, published 2014).

In general, IC50 refers to the concentration that inhibits the measured activity by half. High values mean a need for much substance, low ones inhibition by little substance.

SMILES strings stand for the structures. Bounds are passed on as bounds.

One assay has as its target mTORC1 (Homo sapiens, UniProt P42345). The assay is described as follows: mTOR/GbL/Raptor (mTORC1) ELISA Assay. In kind it is biochemical. The following applies: phosphorylation of 4E-BP1; 0.2 nM mTORC1, 10 μM ATP. Here is the method:
The measurement of mTORC1 enzyme activity was performed in an ELISA assay format following the phosphorylation of 4E-BP1 protein. All experiments were performed in the 384-well format. Generally, 0.5 μL DMSO containing varying concentrations of the test compound was mixed with 15 μL enzyme solution. Kinase reactions were initiated with the addition of 15 μL of substrates-containing solution. The assay conditions were as follows; 0.2 nM mTORC1, 10 μM ATP and 50 nM NHis-tagged 4E-BP1 in 20 mM Hepes, pH 7.2, 1 mM DTT, 50 mM NaCl, 10 mM MnCl2, 0.02 mg/mL BSA, 0.01% CHAPS, 50 mM β-glycerophosphate. Following an incubation of 120 minutes at ambient temperature, 20 μL of the reaction volume was transferred to a Ni-Chelate-coated 384-well plate. The binding step of the 4E-BP1 protein proceeded for 60 minutes, followed by washing 4 times each with 50 μL of Tris-buffered saline solution (TBS). Anti-phospho-4E-BP1 rabbit-IgG (20 μL, 1:5000) in 5% BSA-TBST (0.2% Tween-20 in TBS) was added and further incubated for 60 minutes. Incubation with a secondary HRP-tagged anti-IgG was similarly performed after washing off the primary antibody (4 washes of 50 μL). Following the final wash step with TBST, 20 μL of SuperSignal ELISA Femto (Pierce Biotechnology) was added and the luminescence measured using an EnVision plate reader.
(In general: An ELISA detects its analyte on a solid surface through an enzyme-linked reagent.)

The next assay deals with PI3Kalpha (Homo sapiens, UniProt P42336). The assay is described as follows: PI3K Biochemical Assays (PI3K-alpha assay). The following applies: ATP consumption, luciferase-luciferin; 1 μM ATP, 10 μM PIP2. Here is the method: PI3Kn activity was measured as the percent of ATP consumed following the kinase reaction using luciferase-luciferin-coupled chemiluminescence. Reactions were conducted in 384-well white, medium binding microtiter plates (Greiner). Kinase reactions were initiated by combining test compounds, ATP, substrate (PIP2), and kinase in a 20 μL volume in a buffer solution. The standard PI3Kalpha assay buffer was composed 50 mM Tris, pH 7.5, 1 mM EGTA, 10 mM MgCl2, 1 mM DTT and 0.03% CHAPS. The standard assay concentrations for enzyme, ATP, and substrate were 3 nM, 1 μM, and 10 μM, respectively. The reaction mixture was incubated at ambient temperature for approximately 2 h. Following the kinase reaction, a 10 μL aliquot of luciferase-luciferin mix (Promega Kinase-Glo) was added and the chemiluminescence signal measured using a Victor2 or EnVision (Perkin Elmer). Total ATP consumption was limited to 40-60% and IC50 values of control compounds correlate well with literature references. Substituting PI3Kα with PI3Krβ, PI3Kγ, or PI3Kδ, the inhibitory activity of the compounds for the other isoforms of PI3K were measured. For the PI3Kβ and PI3Kδ assays, enzyme concentrations were 10 nM and 4 nM, respectively. For the PI3Kγ assay, enzyme concentration was 40 nM, the incubation time was 1 h, and the concentration of MgCl2 in the assay buffer was 5 mM.
Chain of PI3Kalpha (P42336 whole entry): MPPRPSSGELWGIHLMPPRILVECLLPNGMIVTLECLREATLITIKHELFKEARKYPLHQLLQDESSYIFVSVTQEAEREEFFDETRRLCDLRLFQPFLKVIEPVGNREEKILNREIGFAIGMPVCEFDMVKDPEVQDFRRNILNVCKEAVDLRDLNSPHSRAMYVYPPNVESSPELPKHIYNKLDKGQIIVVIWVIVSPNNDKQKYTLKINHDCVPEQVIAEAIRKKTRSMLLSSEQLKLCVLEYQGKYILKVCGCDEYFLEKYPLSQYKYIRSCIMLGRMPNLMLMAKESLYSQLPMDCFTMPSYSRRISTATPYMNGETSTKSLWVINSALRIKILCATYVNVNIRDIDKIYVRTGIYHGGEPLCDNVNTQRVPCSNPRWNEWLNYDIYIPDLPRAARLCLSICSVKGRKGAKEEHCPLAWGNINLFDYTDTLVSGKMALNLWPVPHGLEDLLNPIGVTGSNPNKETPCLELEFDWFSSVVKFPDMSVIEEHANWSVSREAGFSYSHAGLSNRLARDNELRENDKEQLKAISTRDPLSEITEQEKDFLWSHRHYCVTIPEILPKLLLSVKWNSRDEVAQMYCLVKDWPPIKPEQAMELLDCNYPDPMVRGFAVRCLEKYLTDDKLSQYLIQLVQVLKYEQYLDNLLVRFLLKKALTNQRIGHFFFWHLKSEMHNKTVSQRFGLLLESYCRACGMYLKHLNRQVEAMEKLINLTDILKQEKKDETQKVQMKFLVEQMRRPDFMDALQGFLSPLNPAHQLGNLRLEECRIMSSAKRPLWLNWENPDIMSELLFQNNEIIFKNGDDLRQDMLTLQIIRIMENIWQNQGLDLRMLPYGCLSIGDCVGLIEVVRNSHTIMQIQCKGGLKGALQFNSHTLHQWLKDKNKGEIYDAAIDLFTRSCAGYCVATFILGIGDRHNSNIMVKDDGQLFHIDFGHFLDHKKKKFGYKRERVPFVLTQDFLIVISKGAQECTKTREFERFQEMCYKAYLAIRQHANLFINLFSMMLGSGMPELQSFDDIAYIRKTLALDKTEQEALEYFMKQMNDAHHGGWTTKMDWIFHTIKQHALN
Chain of PI3Kalpha (P27986 whole entry partner): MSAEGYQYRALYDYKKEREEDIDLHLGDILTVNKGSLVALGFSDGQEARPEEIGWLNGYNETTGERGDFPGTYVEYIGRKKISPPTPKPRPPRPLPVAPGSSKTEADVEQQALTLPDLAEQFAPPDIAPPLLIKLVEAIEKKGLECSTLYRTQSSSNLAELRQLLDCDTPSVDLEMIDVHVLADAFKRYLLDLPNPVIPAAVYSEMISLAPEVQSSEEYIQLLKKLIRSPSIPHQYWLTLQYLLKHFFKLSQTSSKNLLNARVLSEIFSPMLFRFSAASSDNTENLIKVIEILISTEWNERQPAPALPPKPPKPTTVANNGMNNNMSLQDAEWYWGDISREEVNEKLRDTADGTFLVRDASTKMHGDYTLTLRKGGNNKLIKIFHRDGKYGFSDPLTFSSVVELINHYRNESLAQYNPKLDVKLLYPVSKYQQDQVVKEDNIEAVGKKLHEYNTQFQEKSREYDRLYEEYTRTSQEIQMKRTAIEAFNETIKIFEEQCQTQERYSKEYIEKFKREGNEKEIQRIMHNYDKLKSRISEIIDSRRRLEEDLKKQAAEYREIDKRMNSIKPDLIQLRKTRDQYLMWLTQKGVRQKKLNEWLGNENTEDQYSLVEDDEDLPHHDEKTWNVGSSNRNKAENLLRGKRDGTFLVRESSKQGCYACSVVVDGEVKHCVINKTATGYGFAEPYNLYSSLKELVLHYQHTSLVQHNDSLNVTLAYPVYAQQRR

As to `CCc1c(C)nc(CN(C)C)nc1N1CCOc2ccc(-c3cnc4sc(N)nc4c3)cc2C1` [Compound 1, 6-(4-{2-[(dimethylamino)methyl]-5-ethyl-6-methylpyrimidin-4-yl)-2,3,4,5-tetrahydro-1,4-benzoxazepin-7-yl)[1,3]thiazolo[5,4-b]pyridin-2-amine], the IC50 at mTORC1 was 100 to 500 nM; on PI3Kalpha it was at most 100 nM. On the same counts, the results for `Cc1nc(CN(C)C)nc(N2CCOc3ccc(-c4cnc5sc(N)nc5c4)cc3C2)c1C` [Compound 2, 6-(4-{2-[(dimethylamino)methyl]-5,6-dimethylpyrimidin-4-yl}-2,3,4,5-tetrahydro-1,4-benzoxazepin-7-yl)[1,3]thiazolo[5,4-b]pyridin-2-amine] are 500 to 2500 nM and at most 100 nM. In the case of `Cc1nc(CO)nc(N2CCOc3ccc(-c4cnc5sc(N)nc5c4)cc3C2)c1C(C)C` [Compound 3, {4-[7-(2-amino[1,3]thiazolo[5,4-b]pyridin-6-yl)-2,3-dihydro-1,4-benzoxazepin-4(5H)-yl]-6-methyl-5-(1-methylethyl)pyrimidin-2-yl}methanol], the concentration for half-maximal inhibition (IC50) against mTORC1 and against PI3Kalpha was at most 100 nM throughout. `CCN(CC)Cc1nc(C)c(C(C)C)c(N2CCOc3ccc(-c4cnc5sc(N)nc5c4)cc3C2)n1` [Compound 4, 6-(4-{2-[(diethylamino)methyl]-6-methyl-5-(1-methylethyl)pyrimidin-4-yl}-2,3,4,5-tetrahydro-1,4-benzoxazepin-7-yl)[1,3]thiazolo[5,4-b]pyridin-2-amine]: the IC50 on mTORC1 and at PI3Kalpha was at most 100 nM in each case. With `Cc1nc(N)nc(N2CCOc3ccc(-c4cnc5sc(N)nc5c4)cc3C2)c1C` [Compound 5, 6-[4-(2-amino-5,6-dimethylpyrimidin-4-yl)-2,3,4,5-tetrahydro-1,4-benzoxazepin-7-yl][1,3]thiazolo[5,4-b]pyridin-2-amine], the 50% inhibitory concentration (IC50) was 100 to 500 nM on mTORC1 and at most 100 nM against PI3Kalpha.

Regarding `CCc1c(C)nc(N)nc1N1CCOc2ccc(-c3cnc4sc(N)nc4c3)cc2C1` [Compound 6, 6-[4-(2-amino-5-ethyl-6-methylpyrimidin-4-yl)-2,3,4,5-tetrahydro-1,4-benzoxazepin-7-yl][1,3]thiazolo[5,4-b]pyridin-2-amine], the IC50 against mTORC1 and on PI3Kalpha was at most 100 nM each time.

For `CCc1c(Cl)nc(N)nc1N1CCOc2ccc(-c3cnc4sc(N)nc4c3)cc2C1` [Compound 7, 6-[4-(2-amino-6-chloro-5-ethylpyrimidin-4-yl)-2,3,4,5-tetrahydro-1,4-benzoxazepin-7-yl][1,3]thiazolo[5,4-b]pyridin-2-amine], the IC50 against mTORC1 and on PI3Kalpha was at most 100 nM each time. On to `CC(C)c1c(Cl)nc(N)nc1N1CCOc2ccc(-c3cnc4sc(N)nc4c3)cc2C1` [Compound 8, 6-{4-[2-amino-6-chloro-5-(1-methylethyl)pyrimidin-4-yl]-2,3,4,5-tetrahydro-1,4-benzoxazepin-7-yl}[1,3]thiazolo[5,4-b]pyridin-2-amine], for which the IC50 at mTORC1 and against PI3Kalpha was at most 100 nM each time.

`CCCc1c(Cl)nc(N)nc1N1CCOc2ccc(-c3cnc4sc(N)nc4c3)cc2C1` [Compound 9, 6-[4-(2-amino-6-chloro-5-propylpyrimidin-4-yl)-2,3,4,5-tetrahydro-1,4-benzoxazepin-7-yl][1,3]thiazolo[5,4-b]pyridin-2-amine]: the IC50 on mTORC1 and against PI3Kalpha was at most 100 nM in each case. With `CC(C)c1c(F)nc(N)nc1N1CCOc2ccc(-c3cnc4sc(N)nc4c3)cc2C1` [Compound 10, 6-{4-[2-amino-6-fluoro-5-(1-methylethyl)pyrimidin-4-yl]-2,3,4,5-tetrahydro-1,4-benzoxazepin-7-yl}[1,3]thiazolo[5,4-b]pyridin-2-amine], the IC50 on mTORC1 and at PI3Kalpha was at most 100 nM throughout. Take `C=Cc1c(Cl)nc(N)nc1N1CCOc2ccc(-c3cnc4sc(N)nc4c3)cc2C1` [Compound 11, 6-[4-(2-amino-6-chloro-5-ethenylpyrimidin-4-yl)-2,3,4,5-tetrahydro-1,4-benzoxazepin-7-yl][1,3]thiazolo[5,4-b]pyridin-2-amine]: the IC50 against mTORC1 and against PI3Kalpha was at most 100 nM throughout. In the case of `COCCc1c(C)nc(N)nc1N1CCOc2ccc(-c3cnc4sc(N)nc4c3)cc2C1` [Compound 12, 6-(4-{2-amino-6-methyl-5-[2-(methyloxy)ethyl]pyrimidin-4-yl)-2,3,4,5-tetrahydro-1,4-benzoxazepin-7-yl)[1,3]thiazolo[5,4-b]pyridin-2-amine], the concentration for half-maximal inhibition (IC50) at mTORC1 and against PI3Kalpha was at most 100 nM in each case. In the case of `COCCc1c(C)nc(CN(C)C)nc1N1CCOc2ccc(-c3cnc4sc(N)nc4c3)cc2C1` [Compound 13, 6-(4-{2-[(dimethylamino)methyl]-6-methyl-5-[2-(methyloxy)ethyl]pyrimidin-4-yl}-2,3,4,5-tetrahydro-1,4-benzoxazepin-7-yl)[1,3]thiazolo[5,4-b]pyridin-2-amine], the IC50 was 100 to 500 nM against mTORC1 and at most 100 nM at PI3Kalpha. Taken in the same sequence, the figures for `COC(=O)Cc1c(C)nc(CN(C)C)nc1N1CCOc2ccc(-c3cnc4sc(N)nc4c3)cc2C1` [Compound 14, methyl {4-[7-(2-amino[1,3]thiazolo[5,4-b]pyridin-6-yl)-2,3-dihydro-1,4-benzoxazepin-4(5H)-yl]-2-[(dimethylamino)methyl]-6-methylpyrimidin-5-yl}acetate] were 100 to 500 nM and at most 100 nM. Turning to `Nc1nc2c(c(N3CCOc4ccc(-c5cnc6sc(N)nc6c5)cc4C3)n1)CCC2` [Compound 15, 6-[4-(2-amino-6,7-dihydro-5H-cyclopenta[d]pyrimidin-4-yl)-2,3,4,5-tetrahydro-1,4-benzoxazepin-7-yl][1,3]thiazolo[5,4-b]pyridin-2-amine], the half-maximal inhibitory concentration (IC50) on mTORC1 and against PI3Kalpha was at most 100 nM throughout. Consider `Nc1nc(Cl)cc(N2CCOc3ccc(-c4cnc5sc(N)nc5c4)cc3C2)n1` [Compound 16, 6-[4-(2-amino-6-chloropyrimidin-4-yl)-2,3,4,5-tetrahydro-1,4-benzoxazepin-7-yl][1,3]thiazolo[5,4-b]pyridin-2-amine], for which the half-inhibitory concentration (IC50) against mTORC1 and on PI3Kalpha was 100 to 500 nM in each case. For `C=Cc1c(N2CCOc3ccc(-c4cnc5sc(N)nc5c4)cc3C2)nc(N)nc1C(F)(F)F` [Compound 17, 6-{4-[2-amino-5-ethenyl-6-(trifluoromethyl)pyrimidin-4-yl]-2,3,4,5-tetrahydro-1,4-benzoxazepin-7-yl}[1,3]thiazolo[5,4-b]pyridin-2-amine], the IC50 at mTORC1 and on PI3Kalpha was at most 100 nM in each case. As for `Cc1nc(CN(C)C)nc(N2CCOc3ccc(-c4cnc5sc(N)nc5c4)cc3C2)c1CC(=O)O` [Compound 18, {4-[7-(2-amino[1,3]thiazolo[5,4-b]pyridin-6-yl)-2,3-dihydro-1,4-benzoxazepin-4(5H)-yl]-2-[(dimethylamino)methyl]-6-methylpyrimidin-5-yl}acetic acid], the IC50 on mTORC1 lay within 500 to 2500 nM; on PI3Kalpha it was 100 to 500 nM. On to `CC(C)c1c(Br)nc(N)nc1N1CCOc2ccc(-c3cnc4sc(N)nc4c3)cc2C1` [Compound 19, 6-{4-[2-amino-6-bromo-5-(1-methylethyl)pyrimidin-4-yl]-2,3,4,5-tetrahydro-1,4-benzoxazepin-7-yl}[1,3]thiazolo[5,4-b]pyridin-2-amine], for which the IC50 at mTORC1 and on PI3Kalpha was at most 100 nM in each case. For the compound `Cc1nc(C(N)=O)nc(N2CCOc3ccc(-c4cnc5sc(N)nc5c4)cc3C2)c1C(C)C` [Compound 20, 4-[7-(2-amino[1,3]thiazolo[5,4-b]pyridin-6-yl)-2,3-dihydro-1,4-benzoxazepin-4(5H)-yl]-6-methyl-5-(1-methylethyl)pyrimidine-2-carboxamide], the IC50 against mTORC1 and on PI3Kalpha was at most 100 nM in each case.

At mTORC1, `CNc1nc(C)c(C(C)C)c(N2CCOc3ccc(-c4cnc5sc(N)nc5c4)cc3C2)n1` [Compound 92, 6-{4-[6-methyl-2-(methylamino)-5-(1-methylethyl)pyrimidin-4-yl]-2,3,4,5-tetrahydro-1,4-benzoxazepin-7-yl}[1,3]thiazolo[5,4-b]pyridin-2-amine] gave a concentration for half-maximal inhibition (IC50) of at most 100 nM.
